Key:
ARPE-19mel cells = experiment: Melanosomal drug uptake assay in re-pigmented ARPE-19mel cells (medium concentration vs non-pigmented ARPE-19, LC-MS/MS); type: in vitro ADME, human; settings: 4 µM drug, 20 hours; for Melanosomal drug uptake (%), average: serum-free medium; for Melanosomal drug uptake (fraction of administered compound in the melanosomes): ARPE-19mel cells, pigmentation stage not specified
Procedure: Uptake of six different drugs (Table 1) was studied in non-pigmented ARPE-19 cells and pigmented ARPE-19mel cells. The melanosome administration was conducted as described above using three melanosome doses (corresponding to 7 µg, 20 µg and 68 µg of melanin). These melanosome doses correspond to 10, 30 and 100% levels of pigmentation. The highest external melanosome dose (68 µg) results in similar cellular pigmentation with the native pRPE (i.e. normalized as 100%).
Drug uptake study was initiated 4–5 days after melanosome feeding. The experiments were conducted in 2–6 replicate wells, separately for each compound. The cells were exposed to 4 µM of each drug for 20 hours in serum-free culture medium. Then, samples from the medium samples were collected and diluted 2:5 into acetonitrile (ACN) with 0.2% formic acid. The samples were centrifuged at 15 000 g for 5 min, and the supernatant was collected and diluted 1:10 into mixture of ACN-water (60:40). Finally, internal standards were added at final concentration of 100 nM. Different internal standards were used for each compound (Table 1). The melanin amounts in the wells were measured after the uptake experiment (see above).
Drugs were quantitated with liquid chromatography mass spectrometry (LC-MS) analyses that were carried out with Acquity i-class UPLC (Waters, Massachusetts, USA) coupled with Xevo TQ-S triple quadrupole mass spectrometry (Waters). […] Chromatographic separation for all six compounds was carried out using Waters HSS-T3 column (2.1 × 100 mm, 1.8 µm) and gradient run. The mobile phases were prepared as binary phases. Phase A was purified water with 0.1% of formic acid and phase B contained 100% lc-ms grade acetonitrile (Chromasolv^TM). […] Total run time was 9 minutes including column flush and stabilization to the initial state. […] Flow through needle system was used.
Electrospray ionization on positive mode was used in the analyses. […] Nitrogen was used as a desolvation gas (Aga, Helsinki, Finland) and argon as a collision gas (Aga). Capillary and cone voltages, collision energy and dwell time were tuned individually for each compound (Table 2). […] Minimum of eight calibration curve levels were used for quantification while quality control (QC) samples used to monitor precision and bias of the assay. Data were processed with MassLynx V4.1 software (Waters).
The melanosomal drug uptake was calculated using the Eq. 1 below:1 Melanosomaldruguptake(%)=(1−CmediumARPE−19mel/CmediumARPE−19)×100%

[1] = parameters: method as in PMID 29859954, PMID 28479360; settings: descriptors originally obtained with ACDLabs Software, cited from earlier work; for logD7.4 (predicted): pH 7.4
[2] = 10 % stage of pigmentation (7 µg melanin/well)
[3] = 30 % stage of pigmentation (20 µg melanin/well)
[4] = 100 % stage of pigmentation (68 µg melanin/well)

With CCN(CC)CCCC(C)Nc1ccnc2cc(Cl)ccc12 (centres unmarked) [chloroquine] the “Melanosomal drug uptake (%), average” value (ARPE-19mel cells; [2]) was 80.3%, the “Melanosomal drug uptake (%), average” value (ARPE-19mel cells; [3]) was 93.3% and the “Melanosomal drug uptake (%), average” value (ARPE-19mel cells; [4]) was 96.7%. The “Melanosomal drug uptake (fraction of administered compound in the melanosomes)” value (ARPE-19mel cells) was greater than 90%.
For O=C(O)Cc1ccccc1Nc1c(Cl)cccc1Cl [diclofenac], the “Melanosomal drug uptake (%), average” value (ARPE-19mel cells; [2]) was 0.8%, the “Melanosomal drug uptake (%), average” value (ARPE-19mel cells; [3]) was 1.2% and the “Melanosomal drug uptake (%), average” value (ARPE-19mel cells; [4]) was 3.7%. For the same compound, the “Melanosomal drug uptake (fraction of administered compound in the melanosomes)” value (ARPE-19mel cells) was less than 5% and the “logD7.4 (predicted)” value [1] was 1.4.
With CN(Cc1cnc2nc(N)nc(N)c2n1)c1ccc(C(=O)N[C@@H](CCC(=O)O)C(=O)O)cc1 [methotrexate] the “Melanosomal drug uptake (%), average” value (ARPE-19mel cells; [2]) was 5.1%, the “Melanosomal drug uptake (%), average” value (ARPE-19mel cells; [3]) was 3.9% and the “Melanosomal drug uptake (%), average” value (ARPE-19mel cells; [4]) was 3.5%. The “Melanosomal drug uptake (fraction of administered compound in the melanosomes)” value (ARPE-19mel cells) was less than 5%, the “pKa, most acidic” value [1] was 3.5 and the “logD7.4 (predicted)” value [1] was −5.1.
For CC[C@@H]1C(=O)OC[C@@H]1Cc1cncn1C [pilocarpine], the “Melanosomal drug uptake (%), average” value (ARPE-19mel cells; [2]) was 11.5%, the “Melanosomal drug uptake (%), average” value (ARPE-19mel cells; [3]) was 23.5% and the “Melanosomal drug uptake (%), average” value (ARPE-19mel cells; [4]) was 30.2%. For the same compound, the “pKa, most basic” value [1] was 7.02 and the “logD7.4 (predicted)” value [1] was −0.4.
In the case of CC(C)NCC(O)COc1cccc2ccccc12 (centres unmarked) [propranolol], the “Melanosomal drug uptake (%), average” value (ARPE-19mel cells; [2]) is reported as 34.1%, the “Melanosomal drug uptake (%), average” value (ARPE-19mel cells; [3]) is reported as 76.1% and the “Melanosomal drug uptake (%), average” value (ARPE-19mel cells; [4]) is reported as 92.2%. The “Melanosomal drug uptake (fraction of administered compound in the melanosomes)” value (ARPE-19mel cells) was greater than 90%.
With CC(C)(C)NC[C@H](O)COc1nsnc1N1CCOCC1 [timolol] the “Melanosomal drug uptake (%), average” value (ARPE-19mel cells; [2]) was 17.6%, the “Melanosomal drug uptake (%), average” value (ARPE-19mel cells; [3]) was 31.2% and the “Melanosomal drug uptake (%), average” value (ARPE-19mel cells; [4]) was 48.2%. The “pKa, most basic” value [1] was 9.4 and the “logD7.4 (predicted)” value [1] was −0.6.

Source: paper PMC6760193, “Characterization of artificially re-pigmented ARPE-19 retinal pigment epithelial cell model” (Scientific Reports, 2019)
